Assay type in all cases: in vivo
Data set [1] deals with Chilo partellus (Maize stemborer - larvae). In words: Residual test, Maize stemborer - larvae (CP), Oilseed rape. Particulars: 72 h, 3 days, read-out: CP grading of mortality. The protocol:
(§1) The activity of the Product was determined using a variety of insect pests. The Product was used in the form of liquid preparations containing from 100 to 500 parts per million (ppm) by weight of the Product. The preparations were made by dissolving the Product in acetone and diluting the solutions with water containing 0.1% by weight of a wetting agent sold under the trade name "SYNPERONIC" NX until the liquid preparations contained the required concentration of the Product. "SYNPERONIC" is a Registered Trade Mark.
(§2) The test procedure adopted with regard to each pest was basically the same and comprised supporting a number of the pests on a medium which was usually a host plant or a foodstuff on which the pests feed, and treating either or both the pests and the medium with the preparations. The mortality of the pests was then assessed at periods usually varying from one to seven days after the treatment.
The results of the tests are given in Table III for each of the Products, at the rate in parts per million given in the second column as a grading of mortality designated as A, B or C wherein A indicates 80-100% mortality or knockdown (70-100% for Meloidogyne incognita), B indicates 50-79% mortality knockdown or knockdown (50-69% for Meloidogyne incognita) and C indicates less than 50% mortality or knockdown.
In Table III the pest organism used is designated by a letter code and the pests species, the support medium or food, and the type and duration of test is given in Table II.
(Maize stemborer - larvae)

In data set [2] the test system is Diabrotica balteata (rootworm larvae). Description: Residual test, rootworm larvae (DB), Filter paper/maize seed. To be noted: 72 h, 3 days, read-out: DB grading of mortality. The gist of the method:
(§3)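 Mortality scored 1–7 days post-treatment. Test liquids at 100–500 ppm (acetone stock diluted into water + 0.1% w/w wetting agent) applied to pests, their plant/food medium, or both.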

Data set [3] relates to Myzus persicae (aphids). Description: Contact test, aphids (MP), Chinese Cabbage leaf. To be noted: 72 h, 3 days, read-out: MP grading of mortality. The gist of the method: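 Aphids on a host plant and/or the plant itself were treated with 100–500 ppm of product, applied from acetone diluted in water containing 0.1% SYNPERONIC NX wetting agent. Mortality was scored usually one to seven days after treatment.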

Data set [4] deals with Meloidogyne incognita (Tomato root knot eelworm - larvae). Description: Residual test, Tomato root knot eelworm - larvae (MI), Semi in-vitro. Particulars: 168 h, application rate is half that recorded, 7 days, read-out: MI grading of mortality; for mortality at 250 µg/mL: rate column 500 ppm; for mortality at 125 µg/mL: rate 250 ppm.
Data set [5] concerns Heliothis virescens (tobacco budworm - larvae). In words: Residual test, tobacco budworm - larvae (HV), Cotton leaf. Particulars: 72 h, read-out: HV grading of mortality. The gist of the method: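 Products applied as acetone solutions diluted in water with 0.1% wetting agent, at 100–500 ppm; pests on host plant or food, with pests and/or medium treated. Mortality or knockdown scored 1–7 days after treatment and graded A (80–100%), B (50–79%) or C (<50%).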

The subject of data set [6] is Musca domestica (houseflies - adults). In words: Contact test, houseflies - adults (MD), Cotton wool/sugar. Particulars: 24 h, 1 day, read-out: MD grading of mortality. The gist of the method:
as §3

Data set [7] deals with Nilaparvata lugens (brown plant hopper - nymphs). Description: Contact test, brown plant hopper - nymphs (NL), Rice plant. Particulars: 72 h, 3 days, read-out: NL grading of mortality. A digest of the protocol:
as §3

Data set [8] relates to Blattella germanica (cockroach nymphs). In words: Residual test, cockroach nymphs (BG), Plastic pot. Particulars: 72 h, 3 days, read-out: BG grading of mortality. A digest of the protocol:
as §3

The subject of data set [9] is carp. Description: Mortality to carp. Particulars: after 48 hours at 10 parts per million. The source says:
The compounds according to formula I and compositions comprising them have shown themselves to be particularly useful in controlling pests of maize and rice such as Chilo (stem borers), Nilaparvata and Nephotettix (plant hoppers) as well as lepidopteran pests of cotton, for example Heliothis spp. This activity is combined with a low level of hazard to aquatic organisms, eg. fish, which renders the compounds particularly suitable for use in aquatic environments, such as for the control of insect pests of paddy rice and for the control of larvae of insect vectors of disease, for example mosquitos. Thus, for example, compound 2 in Table I caused no mortality to carp after 48 hours at a concentration of 10 parts per million. […] (spider mites).

The subject of data set [10] is Musca domestica (houseflies - adults). Description: Knockdown test, houseflies - adults (MD/KD), Cotton wool/sugar. Particulars: 4 hours, read-out: MD/KD grading of knockdown. A digest of the protocol:
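Product was dissolved in acetone and diluted with water containing 0.1% wetting agent to 100–500 ppm. The flies and/or their food medium were treated with the preparation. Mortality was scored 1–7 days after treatment, with an additional knockdown assessment for houseflies.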

Data set [11] deals with Spodoptera exigua (lesser army worm - larvae). In words: Residual test, lesser army worm - larvae (SP), Cotton leaf. To be noted: 72 h, 3 days, read-out: SP grading of mortality. The gist of the method: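 Compound dissolved in acetone and diluted in water with 0.1% Synperonic NX wetting agent to 100–500 ppm. Pests on host plant or food, with pests and/or medium treated. Mortality assessed 1–7 days after treatment and graded A (80–100%), B (50–79%) or C (<50%).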

In data set [12] the test system is Nephotettix cincticeps. In words: Contact test, leaf hopper in place of Nilaparvata lugens (NL**), Rice plant. Particulars: 72 h, 3 days, read-out: NL** grading of mortality (Nephotettix cincticeps). The protocol: as §1, §2
The results of the tests are given in Table III for each of the Products, at the rate in parts per million given in the second column as a grading of mortality designated as A, B or C wherein A indicates 80-100% mortality or knockdown (70-100% for Meloidogyne incognita), B indicates 50-79% mortality knockdown or knockdown (50-69% for Meloidogyne incognita) and C indicates less than 50% mortality or knockdown. […]

Data set [13] has as its system Tetranychus urticae (spider mites - adult). Description: Contact test, spider mites - adult (TUa), French bean leaf. Particulars: 72 h, 3 days, read-out: TUA grading of mortality. The gist of the method: as §3
In data set [14] the test system is Tetranychus urticae (spider mites - ova). Description: Contact test, spider mites - ova (TUe), French bean leaf. Particulars: 144 h, 6 days, read-out: TUE grading of mortality. The gist of the method: as §3

A word on the mortality: it is the share of the test organisms that died. For the molecule `CCOc1ccc(C(CCCc2cccc(Oc3ccccc3)c2)C(F)(F)F)cc1` (racemic) [Compound 2, 2-(4-ethoxyphenyl)-5-(3-phenoxyphenyl)-1,1,1-trifluoropentane], the mortality at 500 ppm in data set [1], in [2], in [3], in data set [5], in data set [6] and in data set [7] was 80 to 100% throughout. Besides, the mortality at 500 ppm in [8] is 80 to 100%. Moreover, the mortality at 250 µg/mL in data set [4] was less than 50%. Besides, the mortality to carp result in data set [9] is recorded as “no mortality”. Moreover, the pest or weed control at 500 ppm in data set [10] was in the range of 80 to 100%.
For the molecule `FC(F)(F)COc1ccc(C(CCCc2cccc(Oc3ccccc3)c2)C(F)(F)F)cc1` (racemic) [Compound 73, 1,1,1-trifluoro-2-[4-(2,2,2-trifluoroethoxy)phenyl]-5-(3-phenoxyphenyl)pentane], the mortality at 250 ppm in data set [2], in [3], in data set [11] (250 ppm), in data set [5], in data set [6] and in data set [12] (250 ppm) was 80 to 100% in each case. In addition, the mortality at 250 ppm in data set [8] and in data set [13] was 80 to 100% throughout. The pest or weed control at 250 ppm in data set [10] was 80 to 100%.
For the molecule `Fc1ccc(CCC=C(c2ccc(OC(F)(F)F)cc2)C(F)F)cc1Oc1ccccc1` [Compound 26, 1,1-Difluoro-2-(4-trifluoromethoxyphenyl)-5-(4-fluoro-3-phenoxyphenyl)pent-2-ene], the mortality at 500 ppm is 50 to 79% in data set [2]; 80 to 100% in data set [3]; 80 to 100% in data set [11] (500 ppm); 80 to 100% in [5]; 80 to 100% in data set [6]; 80 to 100% in data set [12] (500 ppm). The mortality at 500 ppm in data set [8] and in data set [13] was 80 to 100% in each case. Also, the pest or weed control at 500 ppm in data set [10] was 80 to 100%.
`FC(F)(F)Oc1ccc(C(CCCc2cccc(Oc3ccccc3)c2)C(F)(F)F)cc1` (racemic) [Compound 9, 1,1,1-Trifluoro-2-(4-trifluoromethoxyphenyl)-5-(3-phenoxyphenyl)pentane]: the mortality at 250 ppm in data set [1], in data set [14], in data set [2], in data set [3], in data set [5] and in [6] was 80 to 100% each time. Besides, the mortality at 250 ppm in data set [7], in [8] and in data set [13] was 80 to 100% throughout. The mortality at 125 µg/mL in [4] is less than 50%. The pest or weed control at 250 ppm in [10] lay within 80 to 100%.
Consider `CCOc1ccc(C(CC=Cc2ccc(F)c(Oc3ccccc3)c2)C(F)(F)F)cc1` (stereo not drawn) [Compound 32, 1,1,1-Trifluoro-2-(4-ethoxyphenyl)-5-(4-fluoro-3-phenoxyphenyl)pent-4-ene], for which the mortality at 250 ppm in data set [1] is 80 to 100%; in data set [14] it was less than 50%; in [2], 80 to 100%; in data set [3] it was 80 to 100%; in data set [5] it was 80 to 100%; in data set [6], 80 to 100%. Further, the mortality at 250 ppm was in the range of 80 to 100% in data set [7], 80 to 100% in [8] and 50 to 79% in data set [13]. The mortality at 125 µg/mL in data set [4] was less than 50%. Also, the pest or weed control at 250 ppm in data set [10] is 80 to 100%.
Take `CCOc1ccc(C(C/C=C/c2cccc(Oc3ccccc3)c2)C(F)(F)F)cc1` (stereo not drawn) [Compound 34, 1,1,1-trifluoro-2-(4-ethoxyphenyl)-5-(3-phenoxyphenyl)pent-4-ene]: the mortality at 250 ppm was 80 to 100% in data set [1]; less than 50% in [14]; less than 50% in data set [2]; 80 to 100% in data set [3]; less than 50% in [5]; less than 50% in [6]. Also, the mortality at 250 ppm in data set [7], in data set [8] and in data set [13] was less than 50% in each case. Besides, in data set [4], the mortality at 125 µg/mL fell in the range of 70 to 100%. Moreover, the pest or weed control at 250 ppm in data set [10] was less than 50%.
Regarding `CCOc1ccc(/C(=C\CCc2cccc(Oc3ccccc3)c2)C(F)(F)F)cc1` [Compound 3, E-1,1,1-trifluoro-2-(4-ethoxyphenyl)-5-(3-phenoxyphenyl)pent-2-ene], the mortality at 500 ppm was 80 to 100% in data set [1]; less than 50% in data set [14] (500 ppm); 80 to 100% in data set [2]; 80 to 100% in [3]; 80 to 100% in data set [5]; 80 to 100% in [6]. Moreover, the figures for the mortality at 500 ppm in data set [7], in [8] and in [13] were less than 50%, 80 to 100% and 50 to 79%, respectively. Also, the mortality at 250 µg/mL in [4] is less than 50%. Further, in data set [10], the pest or weed control at 500 ppm lay in the range of 80 to 100%.

These data come from patent publication US4791139A, “Diphenyl ether derivatives and their use as insecticides” (Imperial Chemical Industries PLC, priority 1986, dated 1988).
